For one assay, the system named is HT29 cells. Briefly: SRB cell growth assay, ATM/PARP inhibitor combination. Format: cell-based. Particulars: KU-0059436 plus KU-60019. On the procedure: (§1) Cell growth was assessed using the sulforhodamine B (SRB) assay (Skehan, P. et al (1990) J. Natl. Cancer Inst. 82, 1107-1112) 2,000 cells were seeded into each well of a flat-bottomed 96-well microtiter plate in a volume of […] and incubated for 6 hours at 37° C. Cells were either replaced with media alone or with media containing PARP inhibitor or ATM inhibitor or both at a range of concentrations shown. Cells were then allowed to grow for a further 96 hours after which the media was removed and the cells fixed with […] of ice cold 10% (w/v) trichloroacetic acid. The plates were incubated at 4° C. for 20 minutes and then washed four times with water. Each well of cells was then stained with […] of 0.4% (w/v) SRB in 1% acetic acid for 20 minutes before washing four times with 1% acetic acid. Plates were then dried for 2 hours at room temperature. The dye from the stained cells was solubilized by the addition of […] of 10 mM Tris Base into each well. Plates were gently shaken and left at room temperature for 30 minutes before measuring the optical density at 564 nm on a Microquant microtiter plate reader.

A further assay concerns the target PARP-2 (Homo sapiens, UniProt Q9UGN5). Put plainly: Inhibition of poly(ADP-ribose) polymerase activity of PARP-2. Format: biochemical.
Another assay has as its target vault PARP (Homo sapiens, UniProt Q9UKK3). Briefly: Selectivity: vault PARP inhibition. Format: biochemical. Particulars: at concentrations up to 1 μM.
A further assay has as its target PARP-3 (Homo sapiens, UniProt Q9Y6F1). Put plainly: Selectivity: PARP-3 inhibition. Particulars: at concentrations up to 1 μM. The assay is classed as biochemical.
The test system of another assay is Brca1 deficient ES cells. Briefly: Clonogenic assay, continuous exposure, Brca1 deficient ES cells. Format: cell-based, mouse. On the procedure: (§2) For measurement of sensitivity to chemical inhibitors, cell cultures e.g. ES cells or mouse embryonic fibroblasts, in exponential growth were trypsinised and seeded at various densities in 6-well plates onto confluent monolayer of Mitomycin C (MMC) inactivated mouse embryonic fibroblasts and, where appropriate, treated with inhibitors after 18 h. For continuous exposure, cells were re-fed every 4 days with fresh medium and inhibitor. For timed exposures, inhibitor was added for the specified period then cells were washed and re-fed with fresh medium. After 10-14 days, cells were washed with PBS, fixed in methanol and stained with crystal violet. Colonies containing greater than approximately 50 cells were counted. Experiments were performed at least three times in triplicate.

Another assay has as its system Brca2 deficient ES cells. Put plainly: Clonogenic assay, continuous exposure, Brca2 deficient ES cells. Format: cell-based, mouse. On the procedure:
as §2

The subject of assay [1] is RAD51 siRNA transfected HeLa cells. Briefly: Clonogenic survival, HeLa cells with RAD51 RNAi silencing. Format: cell-based, human. Particulars: continuous treatment. From the text: Clonogenic survival curves of transfected HeLa cells under constant exposure to a range of concentrations of PARP inhibitor (KU0058684) for 12-14 days. […] SF50 for pSUPER-CFP-CONTROL transfected cells is >1×10^−5 M and is 1×10^−6 M for pSUPER-CFP-17/19/23 transfected cells.
HeLa cells were transfected using FuGene (Roche, USA) according to the manufacturers instructions. For clonogenic survival assays, cells were co-transfected in 6 well plates with pSUPER and a vector expressing blasticidin resistance (pEF-Bsd, Invitrogen, USA) at a ratio of 10:1 (pSUPER: pEF-Bsd). Twenty-four hours after transfection, cells were plated into replica plates and this was followed by treatment with PARP inhibitors and blasticidin 48 hours post transfection.

For assay [2], the system named is HeLa cells with BRCA1, BRCA2 and RAD51 silencing. Briefly: Cell viability, HeLa cells with BRCA1, BRCA2 or RAD51 silencing. Format: cell-based, human. Particulars: five days. The method, then: (§3) For cell viability assays, HeLa cells were co-transfected with pSUPER and pEFBsd in 96 well plates using FuGene (Roche, USA) according to the manufacturers instructions. Twenty-four hours after transfection, cells were plated into replica plates and this was followed by treatment with PARP inhibitors and blasticidin 48 hours post transfection. Media containing PARP inhibitors and blasticidin was replenished five days post-transfection and cell viability was measured at seven days using the 96 well plate CellTitre-Glo™ Luminescent Cell Viability Assay kit (Promega, USA, according to the manufacturers instructions).

Assay [3] relates to HeLa cells transfected with DSS1 and RPA siRNA plasmids. Put plainly: Cell viability, HeLa cells transfected with DSS1 and RPA siRNA plasmids. Format: cell-based, human. On the procedure: as §3
Assay [4] deals with HeLa cells transfected with ATM, ATR, CHK1 or CHK2 silencing RNAi. Put plainly: Cell viability, HeLa cells transfected with ATM, ATR, CHK1 or CHK2 silencing RNAi. The assay is classed as cell-based, human. Particulars: five days. The method, then:
as §3

In assay [5] the test system is Fancd2−/−, Fanca−/−, Fancc−/− and Fanca−/−c−/− fibroblasts. Briefly: Clonogenic survival, Fanconi anaemia mouse fibroblasts. The assay is classed as cell-based. Particulars: continuous exposure 12-14 days. On the procedure:
Mouse fibroblasts from wild-type, Fancd2^−/−, Fanca^−/−, Fancc^−/− and Fanca^−/−c^−/− animals were obtained from the Fanconi Anaemia Cell Repository, Oregon Health and Science University. These cells were maintained in DMEM, supplemented with FCS (10% v/v), glutamine and antibiotics. RAD54 and RAD52 Embryonic Stem (ES) cells were grown in DMEM, supplemented with FCS (15% v/v), glutamine, antibiotics, non-essential amino acids, 2-mercaptoethanol and Leukemia inhibitory Factor. HeLa cells (CCL-2) were obtained from ATCC (USA) and were maintained in DMEM, supplemented with FCS (10% v/v), glutamine and antibiotics.
as §2

In the next assay the test system is Rad52 deficient ES cells. Briefly: Clonogenic survival, Rad52 deficient ES cells. Format: cell-based. The method, then:
as §2

A further assay relates to tankyrase. Particulars: at concentrations up to 1 μM.
Another assay deals with FT/pEBS7 ATM−/− cells. Briefly: SRB cell growth assay, ATM deficient vs complemented cells. Format: cell-based. Particulars: FT/pEBS7 ATM−/− vs FT/pEBS7-Y25 ATM+/+. On the procedure:
as §1

The subject of the next assay is NBS1−/− fibroblast cells. Put plainly: SRB cell growth assay, NBS1 deficient fibroblasts vs MRC5. The assay is classed as cell-based. The method, then:
as §1

The subject of another assay is HeLa cells. Put plainly: Cell viability, HeLa cells exposed to PARP inhibitor and caffeine. Particulars: 1 mM Caffeine plus KU0058684.

Consider 4 molecules from patent US8143241B2, “DNA damage repair inhibitors for treatment of cancer” (Kudos Pharmaceuticals Limited, priority 2003, dated 2012).

Chain of PARP-2 (Q9UGN5 whole entry): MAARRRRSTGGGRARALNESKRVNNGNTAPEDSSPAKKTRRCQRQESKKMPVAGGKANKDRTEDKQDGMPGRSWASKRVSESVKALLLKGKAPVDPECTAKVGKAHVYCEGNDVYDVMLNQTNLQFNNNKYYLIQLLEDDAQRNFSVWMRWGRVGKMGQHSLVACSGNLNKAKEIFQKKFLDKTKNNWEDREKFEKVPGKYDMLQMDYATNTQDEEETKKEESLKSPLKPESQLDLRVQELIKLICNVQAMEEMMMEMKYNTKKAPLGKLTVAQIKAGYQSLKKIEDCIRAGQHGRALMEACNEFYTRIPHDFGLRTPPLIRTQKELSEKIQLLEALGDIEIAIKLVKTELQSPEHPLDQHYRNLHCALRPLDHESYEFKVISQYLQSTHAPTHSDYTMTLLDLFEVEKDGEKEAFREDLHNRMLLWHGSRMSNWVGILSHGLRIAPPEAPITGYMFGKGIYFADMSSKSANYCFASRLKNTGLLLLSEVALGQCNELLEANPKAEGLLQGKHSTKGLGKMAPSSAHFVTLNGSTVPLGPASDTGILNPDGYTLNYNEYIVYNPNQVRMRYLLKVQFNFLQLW
Chain of PARP-3 (Q9Y6F1 whole entry, species assumed): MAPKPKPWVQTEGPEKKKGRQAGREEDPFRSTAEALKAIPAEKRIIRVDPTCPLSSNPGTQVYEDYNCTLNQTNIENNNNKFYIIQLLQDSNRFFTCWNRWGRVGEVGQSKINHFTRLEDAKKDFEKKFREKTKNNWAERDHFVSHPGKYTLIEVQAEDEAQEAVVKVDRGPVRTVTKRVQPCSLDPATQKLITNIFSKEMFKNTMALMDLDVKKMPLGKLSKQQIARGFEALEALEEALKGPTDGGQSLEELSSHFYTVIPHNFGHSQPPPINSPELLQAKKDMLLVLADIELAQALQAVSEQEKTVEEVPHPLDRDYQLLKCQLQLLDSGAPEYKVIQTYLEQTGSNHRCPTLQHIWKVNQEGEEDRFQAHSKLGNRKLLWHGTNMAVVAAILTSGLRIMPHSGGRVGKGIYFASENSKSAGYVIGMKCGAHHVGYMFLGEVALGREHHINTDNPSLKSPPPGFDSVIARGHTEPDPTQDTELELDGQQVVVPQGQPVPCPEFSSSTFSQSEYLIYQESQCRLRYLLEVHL
Chain of vault PARP (Q9UKK3 whole entry): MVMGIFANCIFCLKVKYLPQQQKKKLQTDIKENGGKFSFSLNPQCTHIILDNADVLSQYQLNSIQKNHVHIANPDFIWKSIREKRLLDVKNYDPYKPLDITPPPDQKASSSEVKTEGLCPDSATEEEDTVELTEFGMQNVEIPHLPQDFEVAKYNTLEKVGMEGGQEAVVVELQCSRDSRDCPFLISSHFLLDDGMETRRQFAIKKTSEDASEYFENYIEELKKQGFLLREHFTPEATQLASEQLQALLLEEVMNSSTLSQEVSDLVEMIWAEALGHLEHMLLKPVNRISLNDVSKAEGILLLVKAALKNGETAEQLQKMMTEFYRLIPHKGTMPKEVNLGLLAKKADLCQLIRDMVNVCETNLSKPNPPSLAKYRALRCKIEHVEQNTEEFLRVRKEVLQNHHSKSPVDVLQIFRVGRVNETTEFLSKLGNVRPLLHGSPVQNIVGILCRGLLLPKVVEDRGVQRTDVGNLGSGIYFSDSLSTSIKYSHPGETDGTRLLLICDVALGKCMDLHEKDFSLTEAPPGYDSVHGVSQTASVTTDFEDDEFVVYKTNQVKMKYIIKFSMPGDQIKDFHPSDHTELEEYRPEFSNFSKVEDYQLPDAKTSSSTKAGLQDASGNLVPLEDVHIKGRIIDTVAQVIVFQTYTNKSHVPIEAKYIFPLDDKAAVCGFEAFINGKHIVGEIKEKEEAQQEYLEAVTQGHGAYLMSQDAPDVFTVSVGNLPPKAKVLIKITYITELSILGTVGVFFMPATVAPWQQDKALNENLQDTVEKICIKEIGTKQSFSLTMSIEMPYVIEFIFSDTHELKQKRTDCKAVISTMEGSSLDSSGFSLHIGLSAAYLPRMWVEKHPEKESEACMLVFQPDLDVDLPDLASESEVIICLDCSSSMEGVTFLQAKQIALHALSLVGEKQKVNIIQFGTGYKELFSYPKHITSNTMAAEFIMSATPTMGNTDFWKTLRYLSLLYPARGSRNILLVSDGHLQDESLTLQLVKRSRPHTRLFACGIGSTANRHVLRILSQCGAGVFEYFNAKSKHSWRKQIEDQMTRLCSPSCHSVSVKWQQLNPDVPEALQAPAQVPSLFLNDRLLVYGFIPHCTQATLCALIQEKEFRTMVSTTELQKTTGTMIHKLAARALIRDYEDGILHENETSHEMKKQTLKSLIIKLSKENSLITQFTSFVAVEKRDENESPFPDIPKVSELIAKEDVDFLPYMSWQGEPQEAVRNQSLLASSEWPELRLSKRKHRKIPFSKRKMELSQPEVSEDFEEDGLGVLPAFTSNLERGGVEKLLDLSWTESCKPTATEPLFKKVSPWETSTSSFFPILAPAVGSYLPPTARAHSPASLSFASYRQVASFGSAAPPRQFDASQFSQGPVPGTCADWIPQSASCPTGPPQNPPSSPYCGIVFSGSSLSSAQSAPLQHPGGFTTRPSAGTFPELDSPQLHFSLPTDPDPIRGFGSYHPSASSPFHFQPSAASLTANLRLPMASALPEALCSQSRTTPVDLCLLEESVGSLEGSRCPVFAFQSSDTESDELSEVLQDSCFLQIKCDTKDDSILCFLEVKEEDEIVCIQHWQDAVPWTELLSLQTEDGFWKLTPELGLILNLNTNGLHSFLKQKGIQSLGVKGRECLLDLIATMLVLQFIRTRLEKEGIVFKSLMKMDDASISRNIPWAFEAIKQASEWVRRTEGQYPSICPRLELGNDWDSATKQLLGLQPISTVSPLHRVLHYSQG

For `C[C@@H]1CN(CC(=O)Nc2ccc3c(c2)Cc2cccc(-c4cc(=O)cc(N5CCOCC5)o4)c2S3)C[C@H](C)O1` [KU-60019, reference compound], the “sensitivity to PARP inhibition with ATM inhibitor combination” value with HT29 cells is listed as “Sensitivity to PARP inhibition was observed to increase with increasing concentrations of ATMI”.

In the case of `O=C(c1cc(Cc2n[nH]c(=O)c3ccccc23)ccc1F)N1CCCNCC1` [KU0058948], the “inhibition of poly(ADP-ribose) polymerase activity of PARP-1 and PARP-2” value on PARP-2 was “potent and specific inhibitors”. In addition, the “inhibition of vault PARP” value against vault PARP was “do not inhibit”. Also, on PARP-3, the “inhibition of PARP-3” value is “do not inhibit”. Further, the “sensitivity of Brca1 mutant cells relative to KU0058684” value with Brca1 deficient ES cells is on record as “even greater than that of KU0058684”. Besides, the “sensitivity of Brca1 deficient cells compared to otherwise isogenic cells” value in the assay with Brca1 deficient ES cells (clonogenic assay) was “extremely sensitive”. Also, the “sensitivity of Brca2 mutant cells relative to KU0058684” value in the assay with Brca2 deficient ES cells is “even greater than that of KU0058684”. For the same molecule, in the assay with Brca2 deficient ES cells (clonogenic assay), the “sensitivity of Brca2 deficient cells compared to otherwise isogenic cells” value is listed as “extremely sensitive”. Besides, the “clonogenic survival of RAD51 siRNA transfected cells compared to control transfected cells” value in assay [1] was “significant reduction in the clonogenic survival”. In assay [2], the “sensitivity to PARP inhibition after BRCA1, BRCA2 and RAD51 silencing” value is “profound sensitivity”. Further, the “sensitivity of DSS1 and RPA siRNA transfected cells compared to control plasmid” value in assay [3] is recorded as “enhanced sensitivity”. For the same molecule, in assay [4], the “sensitivity of ATM, ATR, CHK1, CHK2 siRNA transfected HeLa cells compared to control plasmid” value is reported as “increased sensitivity”. The “sensitivity of FA gene deficient fibroblasts compared to wild-type cells” value in assay [5] is given as “results in sensitivity”. Further, the “sensitivity of Rad52 deficient ES cells compared to wild-type cells” value in the assay on Rad52 deficient ES cells is “no more sensitive”. Further, in the assay on tankyrase, the inhibition of tankyrase result was “do not inhibit”.

For `O=C(c1cc(Cc2n[nH]c(=O)c3ccccc23)ccc1F)N1CCN(C(=O)C2CC2)CC1` [KU0059436], the “sensitivity of ATM deficient cells compared to wild-type cells” value with FT/pEBS7 ATM−/− cells is “more sensitive”. In the assay with NBS1−/− fibroblast cells, the “sensitivity of NBS1 deficient cells compared to wild-type cells” value is “more sensitive”. The “sensitivity to PARP inhibition with ATM inhibitor combination” value in the assay on HT29 cells is recorded as “Sensitivity to PARP inhibition was observed to increase with increasing concentrations of ATMI”.

Regarding `Cn1c(=O)c2c(ncn2C)n(C)c1=O` [Caffeine, reference compound], the “sensitivity of HeLa cells to PARP inhibitor with caffeine” value in the assay with HeLa cells is “increased sensitivity”.
